Assay results from ChEMBL document CHEMBL4184110 (Bioorg Med Chem Lett, 2018).

Experiments:
[1] = biological target: T1, Peroxisome proliferator-activated receptor delta (Homo sapiens, UniProt Q03181); assay: Transactivation of CMV-fused PPARdelta-LBD-GAL4-DBD (unknown origin) expressed in HEK293T cells by luciferase reporter gene assay; format: cell-based
T1 sequence (Q03181 whole entry): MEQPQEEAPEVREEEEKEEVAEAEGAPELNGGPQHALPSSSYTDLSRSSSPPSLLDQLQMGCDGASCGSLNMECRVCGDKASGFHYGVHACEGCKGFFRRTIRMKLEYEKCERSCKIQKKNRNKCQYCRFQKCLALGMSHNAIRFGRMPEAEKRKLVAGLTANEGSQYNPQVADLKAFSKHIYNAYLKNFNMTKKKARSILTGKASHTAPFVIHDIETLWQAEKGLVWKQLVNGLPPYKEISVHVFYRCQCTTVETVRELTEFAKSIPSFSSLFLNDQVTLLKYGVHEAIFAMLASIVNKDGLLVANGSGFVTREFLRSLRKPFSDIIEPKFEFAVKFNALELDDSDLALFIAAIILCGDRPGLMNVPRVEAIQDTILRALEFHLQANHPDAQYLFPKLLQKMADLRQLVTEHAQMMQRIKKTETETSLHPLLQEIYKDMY

[2] = biological target: T2, Vitamin D3 receptor (Homo sapiens, UniProt P11473); assay: Agonist activity at VDR-LBD (unknown origin) assessed as recruitment of alexa fluor 647-labeled SRC2-3 after 30 mins by fluorescence polarization assay
T2 sequence (P11473 whole entry): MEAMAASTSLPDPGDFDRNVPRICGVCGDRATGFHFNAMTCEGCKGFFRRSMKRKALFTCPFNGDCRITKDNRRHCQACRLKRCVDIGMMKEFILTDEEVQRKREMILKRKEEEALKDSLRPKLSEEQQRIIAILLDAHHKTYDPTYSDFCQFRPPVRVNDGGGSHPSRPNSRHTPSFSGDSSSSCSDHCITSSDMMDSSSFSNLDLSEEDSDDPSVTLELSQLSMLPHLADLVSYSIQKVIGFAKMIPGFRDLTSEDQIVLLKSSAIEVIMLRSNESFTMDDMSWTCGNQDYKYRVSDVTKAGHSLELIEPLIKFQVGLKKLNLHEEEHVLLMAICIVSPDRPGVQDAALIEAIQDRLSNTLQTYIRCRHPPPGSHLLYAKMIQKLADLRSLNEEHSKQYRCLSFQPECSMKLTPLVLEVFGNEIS

[3] = biological target: T2, Vitamin D3 receptor; assay: Antagonist activity at VDR-LBD (unknown origin) assessed as inhibition of LG190178-induced recruitment of alexa fluor 647-labeled SRC2-3 after 30 mins by fluorescence polarization assay
[4] = biological target: T3, Peroxisome proliferator-activated receptor gamma (Homo sapiens, UniProt P37231); assay: Antagonist activity at CMV-fused PPARgamma-LBD-GAL4-DBD (unknown origin) expressed in HEK293T cells assessed as inhibition of rosiglitazone-induced receptor transactivation after 16 hrs by bright-Glo luciferase reporter gene assay; format: cell-based
T3 sequence (P37231 whole entry): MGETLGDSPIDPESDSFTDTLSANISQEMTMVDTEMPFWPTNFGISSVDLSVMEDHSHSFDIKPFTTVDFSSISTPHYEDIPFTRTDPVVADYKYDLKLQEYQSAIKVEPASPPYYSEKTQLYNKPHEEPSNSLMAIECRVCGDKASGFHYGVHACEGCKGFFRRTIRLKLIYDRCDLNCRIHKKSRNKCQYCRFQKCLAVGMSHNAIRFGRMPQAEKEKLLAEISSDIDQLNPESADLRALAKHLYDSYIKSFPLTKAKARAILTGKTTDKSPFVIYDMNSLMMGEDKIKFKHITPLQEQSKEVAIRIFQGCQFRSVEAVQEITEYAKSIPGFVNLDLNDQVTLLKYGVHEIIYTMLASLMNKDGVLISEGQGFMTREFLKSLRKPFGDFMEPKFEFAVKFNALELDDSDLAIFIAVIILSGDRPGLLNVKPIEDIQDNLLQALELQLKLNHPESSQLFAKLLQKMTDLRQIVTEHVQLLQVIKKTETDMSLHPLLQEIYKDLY

[5] = biological target: T4, Retinoic acid receptor RXR-alpha (Homo sapiens, UniProt P19793); assay: Antagonist activity at CMV-fused RXRalpha-LBD-GAL4-DBD (unknown origin) expressed in HEK293T cells assessed as inhibition of bexarotene-induced receptor transactivation after 16 hrs by bright-Glo luciferase reporter gene assay; format: cell-based
T4 sequence (P19793 whole entry): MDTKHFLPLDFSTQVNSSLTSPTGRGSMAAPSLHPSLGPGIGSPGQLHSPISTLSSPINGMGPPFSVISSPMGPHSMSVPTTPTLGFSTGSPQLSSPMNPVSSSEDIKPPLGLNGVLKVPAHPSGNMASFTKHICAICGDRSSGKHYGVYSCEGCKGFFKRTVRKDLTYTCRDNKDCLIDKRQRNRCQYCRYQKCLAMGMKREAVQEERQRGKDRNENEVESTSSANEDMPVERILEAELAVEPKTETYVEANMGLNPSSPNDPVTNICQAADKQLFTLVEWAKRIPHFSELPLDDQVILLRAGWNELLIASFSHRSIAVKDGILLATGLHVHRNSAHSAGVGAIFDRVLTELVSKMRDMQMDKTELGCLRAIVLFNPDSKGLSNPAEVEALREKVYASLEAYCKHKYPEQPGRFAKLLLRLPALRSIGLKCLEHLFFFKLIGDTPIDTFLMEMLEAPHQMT

[6] = biological target: T5, Estrogen receptor (Homo sapiens, UniProt P03372); assay: Antagonist activity at CMV-fused ERalpha-LBD-GAL4-DBD (unknown origin) expressed in HEK293T cells assessed as inhibition of estradiol-induced receptor transactivation after 16 hrs by bright-Glo luciferase reporter gene assay; format: cell-based
T5 sequence (P03372 whole entry): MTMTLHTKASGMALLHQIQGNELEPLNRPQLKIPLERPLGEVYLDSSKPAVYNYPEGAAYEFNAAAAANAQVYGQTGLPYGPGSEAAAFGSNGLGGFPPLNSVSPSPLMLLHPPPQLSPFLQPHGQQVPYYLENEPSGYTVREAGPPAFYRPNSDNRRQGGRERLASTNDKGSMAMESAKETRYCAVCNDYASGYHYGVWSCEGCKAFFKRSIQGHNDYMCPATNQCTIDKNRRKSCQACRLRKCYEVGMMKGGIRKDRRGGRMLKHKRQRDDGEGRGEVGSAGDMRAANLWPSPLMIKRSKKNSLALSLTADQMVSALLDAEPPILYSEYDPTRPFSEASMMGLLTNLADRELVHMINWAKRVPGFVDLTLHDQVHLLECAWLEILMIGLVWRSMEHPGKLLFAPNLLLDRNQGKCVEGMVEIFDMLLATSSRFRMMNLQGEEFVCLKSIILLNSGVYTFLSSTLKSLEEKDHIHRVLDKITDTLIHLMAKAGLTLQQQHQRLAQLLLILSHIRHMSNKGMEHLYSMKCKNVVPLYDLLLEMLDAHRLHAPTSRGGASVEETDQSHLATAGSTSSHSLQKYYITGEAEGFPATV

SMILES	EC50 [1]	EC50 [2]	IC50 [3]	IC50 [4]	IC50 [5]	IC50 [6]
COC(=O)c1ccc(OCc2oc(-c3cccc(OC)c3)nc2C)cc1	Not Active	Not Active	Not Active	7.6 µM	4.6 µM	4.7 µM
COC(=O)c1cccc(OCc2oc(-c3ccccc3OC)nc2C)c1	Not Active	Not Active	Not Active	7.6 µM	11.1 µM	5.2 µM
COC(=O)Cc1ccc(OCc2oc(-c3ccccc3OC)nc2C)cc1	Not Active	Not Active	Not Active	6.3 µM	4.4 µM	4.1 µM
COC(=O)Cc1ccc(OCc2oc(-c3cccc(OC)c3)nc2C)cc1	Not Active	Not Active	Not Active	6.7 µM	2 µM	1.7 µM
